The source of these data is ChEMBL document CHEMBL1641526, “Structure-activity relationship (SAR) of the α-amino acid residue of potent tetrahydroisoquinoline (THIQ)-derived LFA-1/ICAM-1 antagonists” (Bioorg Med Chem Lett, 2011).

The structures appear in SMILES notation.

In data set [1] the target is T1, Intercellular adhesion molecule (ICAM-1), Integrin alpha-L/beta-2 (Homo sapiens, UniProt P05107+P05362+P20701). The data set can be described thus: Inhibition of LFA1/ICAM1 interaction in human Hut-78 cells. The class given is cell-based.
T1 sequence (P20701 whole entry): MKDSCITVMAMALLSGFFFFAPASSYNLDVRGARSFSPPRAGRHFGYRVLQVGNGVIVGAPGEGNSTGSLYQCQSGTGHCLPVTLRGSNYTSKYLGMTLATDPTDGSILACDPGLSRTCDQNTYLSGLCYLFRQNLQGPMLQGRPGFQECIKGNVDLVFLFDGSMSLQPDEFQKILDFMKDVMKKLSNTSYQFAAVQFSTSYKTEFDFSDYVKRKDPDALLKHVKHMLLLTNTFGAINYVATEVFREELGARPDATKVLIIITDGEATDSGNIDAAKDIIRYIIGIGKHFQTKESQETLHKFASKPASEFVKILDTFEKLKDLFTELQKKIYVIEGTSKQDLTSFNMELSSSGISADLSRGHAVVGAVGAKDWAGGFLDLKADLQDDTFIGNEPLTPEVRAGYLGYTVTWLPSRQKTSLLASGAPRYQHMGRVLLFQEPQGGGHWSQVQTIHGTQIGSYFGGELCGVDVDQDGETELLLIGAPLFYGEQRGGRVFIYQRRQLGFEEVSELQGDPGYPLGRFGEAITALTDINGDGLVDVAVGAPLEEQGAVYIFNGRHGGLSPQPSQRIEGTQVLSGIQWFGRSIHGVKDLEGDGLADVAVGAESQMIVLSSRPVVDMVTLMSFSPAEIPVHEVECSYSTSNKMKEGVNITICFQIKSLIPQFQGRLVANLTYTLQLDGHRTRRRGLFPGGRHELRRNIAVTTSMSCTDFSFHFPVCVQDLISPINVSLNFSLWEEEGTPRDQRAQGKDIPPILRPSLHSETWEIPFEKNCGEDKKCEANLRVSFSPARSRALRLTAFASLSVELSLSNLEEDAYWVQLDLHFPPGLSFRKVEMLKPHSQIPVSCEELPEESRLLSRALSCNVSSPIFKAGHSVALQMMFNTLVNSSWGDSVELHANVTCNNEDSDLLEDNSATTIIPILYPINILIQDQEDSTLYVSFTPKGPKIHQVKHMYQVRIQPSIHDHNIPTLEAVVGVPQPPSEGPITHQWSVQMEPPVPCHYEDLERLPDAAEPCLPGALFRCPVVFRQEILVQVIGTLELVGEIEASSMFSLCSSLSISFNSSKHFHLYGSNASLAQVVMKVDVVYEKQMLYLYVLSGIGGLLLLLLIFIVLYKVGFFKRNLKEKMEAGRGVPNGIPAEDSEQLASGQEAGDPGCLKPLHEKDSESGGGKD
T1 sequence (P05362 whole entry): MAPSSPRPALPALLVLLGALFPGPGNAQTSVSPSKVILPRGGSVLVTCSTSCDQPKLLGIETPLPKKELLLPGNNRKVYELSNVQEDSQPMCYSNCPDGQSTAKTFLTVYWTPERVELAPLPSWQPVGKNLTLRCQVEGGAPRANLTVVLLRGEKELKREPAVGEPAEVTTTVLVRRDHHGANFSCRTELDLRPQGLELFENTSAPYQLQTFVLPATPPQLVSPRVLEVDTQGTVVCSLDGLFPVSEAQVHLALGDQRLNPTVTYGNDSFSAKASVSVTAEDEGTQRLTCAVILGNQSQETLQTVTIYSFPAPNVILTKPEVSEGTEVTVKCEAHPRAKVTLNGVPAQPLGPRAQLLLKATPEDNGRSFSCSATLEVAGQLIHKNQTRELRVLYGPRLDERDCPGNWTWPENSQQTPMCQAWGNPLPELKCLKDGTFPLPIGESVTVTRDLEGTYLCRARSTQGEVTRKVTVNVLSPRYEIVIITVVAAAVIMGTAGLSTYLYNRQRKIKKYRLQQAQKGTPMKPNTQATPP
T1 sequence (P05107 whole entry): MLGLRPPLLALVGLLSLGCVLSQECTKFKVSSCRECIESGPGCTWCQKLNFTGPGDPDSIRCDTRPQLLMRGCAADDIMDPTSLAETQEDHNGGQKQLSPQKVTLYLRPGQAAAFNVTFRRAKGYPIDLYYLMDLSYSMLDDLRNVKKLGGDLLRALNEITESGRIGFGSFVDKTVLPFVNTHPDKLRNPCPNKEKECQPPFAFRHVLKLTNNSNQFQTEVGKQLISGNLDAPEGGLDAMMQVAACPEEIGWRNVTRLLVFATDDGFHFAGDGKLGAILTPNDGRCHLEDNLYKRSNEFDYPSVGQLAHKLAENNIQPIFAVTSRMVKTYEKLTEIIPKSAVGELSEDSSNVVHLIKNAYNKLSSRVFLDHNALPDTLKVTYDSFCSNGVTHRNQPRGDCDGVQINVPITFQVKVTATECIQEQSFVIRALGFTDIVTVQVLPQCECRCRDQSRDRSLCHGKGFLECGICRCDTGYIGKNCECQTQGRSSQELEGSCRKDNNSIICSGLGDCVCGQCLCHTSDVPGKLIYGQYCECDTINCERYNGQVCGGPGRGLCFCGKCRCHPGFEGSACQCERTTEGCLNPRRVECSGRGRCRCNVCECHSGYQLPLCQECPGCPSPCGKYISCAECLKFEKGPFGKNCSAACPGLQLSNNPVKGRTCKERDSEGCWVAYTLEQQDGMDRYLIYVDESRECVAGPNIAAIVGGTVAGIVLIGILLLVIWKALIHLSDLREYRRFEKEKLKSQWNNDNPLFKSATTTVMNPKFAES
Data set [2] deals with T1, Intercellular adhesion molecule (ICAM-1), Integrin alpha-L/beta-2. Nature of the data set: Inhibition of LFA1/ICAM1 interaction in human Hut-78 cells in presence of 10% human serum. The class given is cell-based.
Data set [3] is described as follows: Metabolic stability in human liver microsomes after 30 mins by LC/MS analysis. The class given is ADME, Microsome. As to conditions: read-out: Stability.
Data set [4] can be described thus: Clearance in Sprague-Dawley rat at 5 mg/kg administered as single dose. The class given is ADME, organism-based. Further details: dose 5 mg/kg. As to conditions: in vivo.
Data set [5] is described as follows: Metabolic stability in Sprague-Dawley rat liver microsomes after 30 mins by LC/MS analysis. The class given is ADME, Microsome. As to conditions: read-out: Stability.
The nature of data set [6]: Half life in Sprague-Dawley rat at 5 mg/kg administered as single dose. The class given is ADME, organism-based. The settings on record: in vivo. Also on record: dose 5 mg/kg.
Data set [7] is described as follows: AUC in Sprague-Dawley rat at 5 mg/kg administered as single dose. The class given is ADME, organism-based. Also on record: dose 5 mg/kg. The settings on record: plasma.

Regarding `CS(=O)(=O)N1CCC(C[C@H](NC(=O)c2c(Cl)cc3c(c2Cl)CCN(C(=O)c2ccc4ccoc4c2)C3)C(=O)O)C1` (stereo not given in full), inhibition in data set [1] was half-maximal at 1 µM (IC50).

With `O=C(NC[C@H](NC(=O)c1c(Cl)cc2c(c1Cl)CCN(C(=O)c1ccc3ccoc3c1)C2)C(=O)O)c1cccs1`, the IC50 (usually the concentration at which inhibition is half-maximal) in data set [1] was determined as 0.005 µM; in data set [2], 0.95 µM.

As for `CS(=O)(=O)n1cc(C[C@H](NC(=O)c2c(Cl)cc3c(c2Cl)CCN(C(=O)c2ccc(Cl)cc2)C3)C(=O)O)c2ccccc21`, the 50% inhibitory concentration (IC50) in data set [1] turned out to be 0.1 µM; in data set [2] it was 25 µM.

Take `CC(C)n1cc(C[C@H](NC(=O)c2c(Cl)cc3c(c2Cl)CCN(C(=O)c2cc4ccccc4o2)C3)C(=O)O)nn1`: the results for the concentration for half-maximal inhibition (IC50) in data set [1] and in data set [2] were 0.005 µM and 0.19 µM, respectively.

Take `CC(C)c1cc(C[C@H](NC(=O)c2c(Cl)cc3c(c2Cl)CCN(C(=O)c2ccc(Cl)cc2)C3)C(=O)O)[nH]n1`: in data set [1], inhibition was half-maximal at 0.25 µM (IC50).

Regarding `Cc1ccc2c(c1)c(C[C@H](NC(=O)c1c(Cl)cc3c(c1Cl)CCN(C(=O)c1ccc(Cl)cc1)C3)C(=O)O)cn2S(C)(=O)=O`, the values for the IC50 in data set [1] and in data set [2] were 0.026 µM and 11 µM, respectively.

For `CC(C)c1cn(C[C@H](NC(=O)c2c(Cl)cc3c(c2Cl)CCN(C(=O)c2ccc(Cl)cc2)C3)C(=O)O)nn1`, it took 0.31 µM to reach half-maximal inhibition in data set [1] (IC50).

For the compound `CS(=O)(=O)c1ccc(C[C@H](NC(=O)c2c(Cl)cc3c(c2Cl)CCN(C(=O)c2ccc4ccoc4c2)C3)C(=O)O)o1`, the remaining at 0.5 h is greater than 95% in data set [3] and greater than 65% in data set [5]. The IC50 in data set [1] came to 0.0012 µM; in data set [2], 0.096 µM. The clearance (usually the volume of plasma or blood freed of the substance per unit of time) in data set [4] is 60 mL/min/kg. The half-life – broadly, the time in which the quantity being followed falls by half – in data set [6] was 25.8 min. The exposure (AUC) (in general, the area under the concentration-time curve, a measure of exposure) in data set [7] came out at 1510 ng·h/mL.

`CC(C)n1cnc(C[C@H](NC(=O)c2c(Cl)cc3c(c2Cl)CCN(C(=O)c2ccc(Cl)cc2)C3)C(=O)O)c1` gave a half-inhibitory concentration (IC50) in data set [1] of 0.17 µM.

As for `CC(C)c1cnc(C[C@H](NC(=O)c2c(Cl)cc3c(c2Cl)CCN(C(=O)c2ccc(Cl)cc2)C3)C(=O)O)s1`, the IC50 in data set [1] is greater than 1 µM.

In data set [1], `O=C(N[C@@H](Cc1cn(-c2ccccc2)cn1)C(=O)O)c1c(Cl)cc2c(c1Cl)CCN(C(=O)c1ccc(Cl)cc1)C2` had an IC50 greater than 1 µM.

Regarding `Cc1ccc2c(C[C@H](NC(=O)c3c(Cl)cc4c(c3Cl)CCN(C(=O)c3ccc(Cl)cc3)C4)C(=O)O)cn(S(C)(=O)=O)c2c1`, the IC50 in data set [1] was 0.039 µM; in data set [2] it was 25 µM.

As to `CCOC(=O)[C@H](CNC(=O)c1cccs1)NC(=O)c1c(Cl)cc2c(c1Cl)CCN(C(=O)c1ccc3ccoc3c1)C2`, the IC50 in data set [2] came to 0.95 µM.

Consider `O=C(NC[C@H](NC(=O)c1c(Cl)cc2c(c1Cl)CCN(C(=O)c1ccc(Cl)cc1)C2)C(=O)O)c1cccs1`, for which the IC50 in data set [2] came out at 1.5 µM.

With `Cn1cnc(C[C@H](NC(=O)c2c(Cl)cc3c(c2Cl)CCN(C(=O)c2ccc(Cl)cc2)C3)C(=O)O)c1`, half-maximal inhibition in data set [1] (IC50) required 0.56 µM.

Take `CC(C)n1cc(C[C@H](NC(=O)c2c(Cl)cc3c(c2Cl)CCN(C(=O)c2cc4ccccn4n2)C3)C(=O)O)nn1`: the values for the 50% inhibitory concentration (IC50) in data set [1] and in data set [2] were 0.007 µM and 0.26 µM, respectively.

In turn, `CC(=O)n1cc(C[C@H](NC(=O)c2c(Cl)cc3c(c2Cl)CCN(C(=O)c2ccc(Cl)cc2)C3)C(=O)O)c2ccccc21` came in with an IC50 in data set [1] of 0.82 µM.

For the compound `Cc1cccc2c1c(C[C@H](NC(=O)c1c(Cl)cc3c(c1Cl)CCN(C(=O)c1ccc(Cl)cc1)C3)C(=O)O)cn2S(C)(=O)=O`, the half-inhibitory concentration (IC50) in data set [1] is greater than 1 µM.

For `CC(C)n1cc(C[C@H](NC(=O)c2c(Cl)cc3c(c2Cl)CCN(C(=O)c2ccc4ccoc4c2)C3)C(=O)O)nn1`, the remaining at 0.5 h in data set [3] is 86%; in data set [5], greater than 95%. Further, the half-inhibitory concentration (IC50) amounted to 0.019 µM in data set [1] and 0.95 µM in data set [2]. This compound displayed a clearance in data set [4] of 26 mL/min/kg. This compound showed a half-life in data set [6] of 58.2 min. In addition, the AUC in data set [7] amounted to 3680 ng·h/mL.

Consider `CS(=O)(=O)c1ncc(C[C@H](NC(=O)c2c(Cl)cc3c(c2Cl)CCN(C(=O)c2ccc4ccoc4c2)C3)C(=O)O)[nH]1`, for which the IC50 was 0.03 µM in data set [1] and 0.56 µM in data set [2].

In the case of `CC(C)n1cc(C[C@H](NC(=O)c2c(Cl)cc3c(c2Cl)CCN(C(=O)c2ccc(Cl)cc2)C3)C(=O)O)nn1`, in data set [3], the remaining at 0.5 h amounted to 92%. The IC50 in data set [1] came out at 0.059 µM; in data set [2], 1 µM. Besides, in data set [4], the clearance was greater than 60 mL/min/kg. The compound also showed a half-life in data set [6] of 138 min. The compound further showed an AUC in data set [7] of 1410 ng·h/mL.

`NS(=O)(=O)n1cc(C[C@H](NC(=O)c2c(Cl)cc3c(c2Cl)CCN(C(=O)c2ccc(Cl)cc2)C3)C(=O)O)c2ccccc21`: the half-maximal inhibitory concentration (IC50) in data set [1] is greater than 1 µM.

`CS(=O)(=O)c1ccc(C[C@H](NC(=O)c2c(Cl)cc3c(c2Cl)CCN(C(=O)c2ccc4ccoc4c2)C3)C(=O)O)s1` had an IC50 in data set [1] of 0.15 µM.

Turning to `Cc1cccc2c(C[C@H](NC(=O)c3c(Cl)cc4c(c3Cl)CCN(C(=O)c3ccc(Cl)cc3)C4)C(=O)O)cn(S(C)(=O)=O)c12`, the figures for the IC50 in data set [1] and in data set [2] were 0.14 µM and 25 µM, respectively.

As to `O=C(N[C@@H](Cc1c[nH]cn1)C(=O)O)c1c(Cl)cc2c(c1Cl)CCN(C(=O)c1ccc(Cl)cc1)C2`, in data set [1], the IC50 was 0.43 µM.
